Test results published in patent US20080153896A1, “Polymorphic Forms of an HMG-CoA Reductase Inhibitor and Uses Thereof” (priority 2006, published 2008).

Test: Stability (integrity) testing of amorphous and polymorphic form under storage conditions, RP-HPLC
Type: physicochemical
Parameters: key to Impurity RRT 0.738 / Impurity RRT 0.949 / Impurity RRT 1.050 / Impurity RRT 1.550 / Impurity RRT 0.136 / Impurity RRT 0.720 / Impurity RRT 0.706 / Impurity RRT 1.18 / Impurity RRT 1.826: % of total UV absorption (HPLC peak area)
Experimental: The integrity of the different forms of the (3R, 5R)-7-[2-(4-fluorophenyl)-5-isopropyl-3-phenyl-4-[(4-hydroxymethylphenylamino)carbonyl]-pyrrol-1-yl]-3,5-dihydroxy-heptanoic acid, hemi calcium salt, was tested under different atmospheric conditions to determine the stability of the amorphous and polymorphic form of the drug in various storage environments. Reversed Phase-HPLC (RP-HPLC) was used to separate (3R, 5R)-7-[2-(4-fluorophenyl)-5-isopropyl-3-phenyl-4-[(4-hydroxymethylphenylamino)carbonyl]-pyrrol-1-yl]-3,5-dihydroxy-heptanoic acid, hemi calcium salt, from smaller molecules representing breakdown products as well as oxidized drug. The relative amount of the drug was reported as a percent of total absorption by UV. The total peak area of all UV absorption impurities was used to define total impurity of the drug. Impurities are defined by their relative retention time (RRT) compared to native drug. Samples were injected onto a C18 column using standard temperature, gradient and run-time conditions.
The results of this integrity testing for the amorphous form of (3R, 5R)-7-[2-(4-fluorophenyl)-5-isopropyl-3-phenyl-4-[(4-hydroxymethylphenylamino)carbonyl]-pyrrol-1-yl]-3,5-dihydroxy-heptanoic acid, hemi calcium salt, is shown in Table 5.
Three separate batches of polymorphic Form I of (3R, 5R)-7-[2-(4-fluorophenyl)-5-isopropyl-3-phenyl-4-[(4-hydroxymethylphenylamino)carbonyl]-pyrrol-1-yl]-3,5-dihydroxy-heptanoic acid, hemi calcium salt, were prepared and tested under the same atmospheric conditions described for the amorphous form.

[1] = 25° C./60% RH 3M, hemi calcium salt
[2] = 25° C./60% RH 9M, hemi calcium salt

CC(C)c1c(C(=O)Nc2ccc(CO)cc2)c(-c2ccccc2)c(-c2ccc(F)cc2)n1CC[C@@H](O)C[C@@H](O)CC(=O)[O-].CC(C)c1c(C(=O)Nc2ccc(CO)cc2)c(-c2ccccc2)c(-c2ccc(F)cc2)n1CC[C@@H](O)C[C@@H](O)CC(=O)[O-].[Ca+2] [PP00405, (3R, 5R)-7-[2-(4-fluorophenyl)-5-isopropyl-3-phenyl-4-[(4-hydroxymethylphenylamino)carbonyl]-pyrrol-1-yl]-3,5-dihydroxy-heptanoic acid, hemi calcium salt]
Description (5° C. 1M): White
Impurity RRT 1.094 (5° C. 1M): 0.157
Impurity RRT 1.437 (5° C. 1M): 0.155
Impurity RRT 1.593 (5° C. 1M): 0.082
Impurity RRT 1.694 (5° C. 1M): 0.069
Assay (5° C. 1M, hemi calcium salt): 98.31 % W/W
Highest Impurity (5° C. 1M, hemi calcium salt): 0.360
Impurity RRT 0.935 (5° C. 1M, hemi calcium salt): 0.360
Impurity RRT 1.045 (5° C. 1M, hemi calcium salt): 0.357
Impurity RRT 1.64 (5° C. 1M, hemi calcium salt): 0.057
Total Impurity (5° C. 1M, hemi calcium salt): 1.237
Water (5° C. 1M, hemi calcium salt): 4.81 % W/W
Description (5° C. 2M): White
Impurity RRT 1.094 (5° C. 2M): 0.161
Impurity RRT 1.180 (5° C. 2M): 0.048
Impurity RRT 1.437 (5° C. 2M): 0.164
Impurity RRT 1.593 (5° C. 2M): 0.085
Impurity RRT 1.694 (5° C. 2M): 0.067
Assay (5° C. 2M, hemi calcium salt): 98.25 % W/W
Highest Impurity (5° C. 2M, hemi calcium salt): 0.380
Impurity RRT 0.935 (5° C. 2M, hemi calcium salt): 0.380
Impurity RRT 1.045 (5° C. 2M, hemi calcium salt): 0.375
Impurity RRT 1.64 (5° C. 2M, hemi calcium salt): 0.051
Total Impurity (5° C. 2M, hemi calcium salt): 1.33
Water (5° C. 2M, hemi calcium salt): 4.61 % W/W
Description (5° C. 3M): White
Impurity RRT 1.094 (5° C. 3M): 0.149
Impurity RRT 1.437 (5° C. 3M): 0.169
Impurity RRT 1.593 (5° C. 3M): 0.077
Impurity RRT 1.694 (5° C. 3M): 0.056
Total Impurity (5° C. 3M): 1.35
Assay (5° C. 3M, hemi calcium salt): 98.20 % W/W
Highest Impurity (5° C. 3M, hemi calcium salt): 0.469
Impurity RRT 0.935 (5° C. 3M, hemi calcium salt): 0.385
Impurity RRT 1.045 (5° C. 3M, hemi calcium salt): 0.469
Impurity RRT 1.64 (5° C. 3M, hemi calcium salt): 0.047
Water (5° C. 3M, hemi calcium salt): 4.97 % W/W
Description (5° C. 4M): White
Impurity RRT 1.094 (5° C. 4M): 0.169
Impurity RRT 1.437 (5° C. 4M): 0.132
Impurity RRT 1.593 (5° C. 4M): 0.071
Impurity RRT 1.694 (5° C. 4M): 0.071
Assay (5° C. 4M, hemi calcium salt): 98.24 % W/W
Highest Impurity (5° C. 4M, hemi calcium salt): 0.419
Impurity RRT 0.935 (5° C. 4M, hemi calcium salt): 0.419
Impurity RRT 1.045 (5° C. 4M, hemi calcium salt): 0.409
Impurity RRT 1.640 (5° C. 4M, hemi calcium salt): 0.067
Total Impurity (5° C. 4M, hemi calcium salt): 1.338
Water (5° C. 4M, hemi calcium salt): 4.43 % W/W
Description (5° C. 5M): White
Impurity RRT 1.094 (5° C. 5M): 0.105
Impurity RRT 1.437 (5° C. 5M): 0.155
Impurity RRT 1.550 (5° C. 5M): 0.587
Impurity RRT 1.694 (5° C. 5M): 0.045
Assay (5° C. 5M, hemi calcium salt): 98.29 % W/W
Highest Impurity (5° C. 5M, hemi calcium salt): 0.587
Impurity RRT 0.935 (5° C. 5M, hemi calcium salt): 0.289
Impurity RRT 1.045 (5° C. 5M, hemi calcium salt): 0.312
Impurity RRT 1.640 (5° C. 5M, hemi calcium salt): 0.024
Total Impurity (5° C. 5M, hemi calcium salt): 1.517
Water (5° C. 5M, hemi calcium salt): 5.55 % W/W
Description (5° C. 6M): White
Impurity RRT 1.094 (5° C. 6M): 0.153
Impurity RRT 1.437 (5° C. 6M): 0.170
Impurity RRT 1.593 (5° C. 6M): 0.081
Impurity RRT 1.694 (5° C. 6M): 0.070
Water (5° C. 6M): 5.04 % W/W
Assay (5° C. 6M, hemi calcium salt): 98.02 % W/W
Highest Impurity (5° C. 6M, hemi calcium salt): 0.423
Impurity RRT 0.935 (5° C. 6M, hemi calcium salt): 0.423
Impurity RRT 1.045 (5° C. 6M, hemi calcium salt): 0.390
Impurity RRT 1.640 (5° C. 6M, hemi calcium salt): 0.053
Total Impurity (5° C. 6M, hemi calcium salt): 1.340
Description (5° C. 9M): White
Impurity RRT 1.094 (5° C. 9M): 0.161
Impurity RRT 1.180 (5° C. 9M): 0.055
Impurity RRT 1.437 (5° C. 9M): 0.170
Impurity RRT 1.593 (5° C. 9M): 0.065
Impurity RRT 1.694 (5° C. 9M): 0.064
Assay (5° C. 9M, hemi calcium salt): 98.12 % W/W
Highest Impurity (5° C. 9M, hemi calcium salt): 0.407
Impurity RRT 0.935 (5° C. 9M, hemi calcium salt): 0.407
Impurity RRT 1.045 (5° C. 9M, hemi calcium salt): 0.407
Impurity RRT 1.640 (5° C. 9M, hemi calcium salt): 0.033
Total Impurity (5° C. 9M, hemi calcium salt): 1.362
Water (5° C. 9M, hemi calcium salt): 5.07 % W/W
Description (5° C. 12M): White
Impurity RRT 1.094 (5° C. 12M): 0.158
Impurity RRT 1.180 (5° C. 12M): 0.022
Impurity RRT 1.437 (5° C. 12M): 0.152
Impurity RRT 1.593 (5° C. 12M): 0.086
Impurity RRT 1.694 (5° C. 12M): 0.068
Assay (5° C. 12M, hemi calcium salt): 97.78 % W/W
Highest Impurity (5° C. 12M, hemi calcium salt): 0.432
Impurity RRT 0.935 (5° C. 12M, hemi calcium salt): 0.417
Impurity RRT 1.045 (5° C. 12M, hemi calcium salt): 0.432
Impurity RRT 1.640 (5° C. 12M, hemi calcium salt): 0.051
Total Impurity (5° C. 12M, hemi calcium salt): 1.413
Water (5° C. 12M, hemi calcium salt): 5.08 % W/W
Assay (25° C./50% RH 6M): 98.01 % W/W
Description (25° C./50% RH 6M): White
Highest Impurity (25° C./50% RH 6M): 0.390
Impurity RRT 0.935 (25° C./50% RH 6M): 0.390
Impurity RRT 1.045 (25° C./50% RH 6M): 0.370
Impurity RRT 1.094 (25° C./50% RH 6M): 0.140
Impurity RRT 1.437 (25° C./50% RH 6M): 0.117
Impurity RRT 1.593 (25° C./50% RH 6M): 0.073
Impurity RRT 1.640 (25° C./50% RH 6M): 0.048
Impurity RRT 1.694 (25° C./50% RH 6M): 0.074
Total Impurity (25° C./50% RH 6M): 1.212
Water (25° C./50% RH 6M): 5.41 % W/W
Description (25° C./60% RH 3M): White
Impurity RRT 1.094 (25° C./60% RH 3M): 0.153
Impurity RRT 1.437 (25° C./60% RH 3M): 0.155
Impurity RRT 1.593 (25° C./60% RH 3M): 0.079
Impurity RRT 1.694 (25° C./60% RH 3M): 0.064
Assay [1]: 98.21 % W/W
Highest Impurity [1]: 0.388
Impurity RRT 0.935 [1]: 0.368
Impurity RRT 1.045 [1]: 0.382
Impurity RRT 1.64 [1]: 0.047
Total Impurity [1]: 1.270
Water [1]: 4.03 % W/W
Description (25° C./60% RH 9M): White
Impurity RRT 1.094 (25° C./60% RH 9M): 0.141
Impurity RRT 1.437 (25° C./60% RH 9M): 0.162
Impurity RRT 1.593 (25° C./60% RH 9M): 0.076
Impurity RRT 1.694 (25° C./60% RH 9M): 0.068
Assay [2]: 98.09 % W/W
Highest Impurity [2]: 0.376
Impurity RRT 0.935 [2]: 0.374
Impurity RRT 1.045 [2]: 0.376
Impurity RRT 1.640 [2]: 0.046
Total Impurity [2]: 1.243
Water [2]: 5.04 % W/W
Description (25° C./60% RH 12M): White
Impurity RRT 1.094 (25° C./60% RH 12M): 0.153
Impurity RRT 1.180 (25° C./60% RH 12M): 0.019
Impurity RRT 1.437 (25° C./60% RH 12M): 0.145
Impurity RRT 1.593 (25° C./60% RH 12M): 0.083
Impurity RRT 1.694 (25° C./60% RH 12M): 0.059
Assay (25° C./60% RH 12M, hemi calcium salt): 97.95 % W/W
